Laboratory results taken from patent US10787459B2, “Bicyclic compounds as ATX inhibitors” (Hoffmann-La Roche Inc., priority 2015, dated 2020).

target: ATX (human His-tagged) (Homo sapiens (Human), UniProt Q13822); assay: Human ATX enzyme inhibition assay (fluorescence quenching, MR121 substrate); format: biochemical; conditions: 30 nM ATX, 1 μM MR121 substrate, 30° C., pH 8.0; read-out: ATX IC50
Source text: Human ATX Enzyme Inhibition Assay
Assay working solutions were made as follows:

Row | SMILES | IC50
1 | CO[C@@]12CN(C(=O)c3cc(OCC4CCOCC4)nc(C4CC4)c3)C[C@H]1CN(C(=O)c1ccc3[nH]nnc3c1)C2 (relative stereo) [Example 1.03, trans-[5-[2-cyclopropyl-6-(oxan-4-ylmethoxy)pyridine-4-carbonyl]-3a-methoxy-3,4,6,6a-tetrahydro-1H-pyrrolo[3,4-c]pyrrol-2-yl]-(1H-benzotriazol-5-yl)methanone] | 13 nM
2 | CO[C@@]12CN(C(=O)c3cc(OCC4CCOCC4)nc(C4CC4)c3)C[C@H]1CN(C(=O)c1ccc3[nH]c(=O)n(C)c3c1)C2 (relative stereo) [Example 1.06, trans-5-[5-[2-cyclopropyl-6-(oxan-4-ylmethoxy)pyridine-4-carbonyl]-3a-methoxy-3,4,6,6a-tetrahydro-1H-pyrrolo[3,4-c]pyrrole-2-carbonyl]-3-methyl-1H-benzimidazol-2-one] | 2 nM
3 | CO[C@]12CN(C(=O)CCc3ccc(OC(F)(F)F)cc3)C[C@@H]1CN(C(=O)N1CCc3[nH]nnc3C1)C2 (relative stereo) [Example 2.01, trans-1-[3a-methoxy-5-(1,4,6,7-tetrahydrotriazolo[4,5-c]pyridine-5-carbonyl)-3,4,6,6a-tetrahydro-1H-pyrrolo[3,4-c]pyrrol-2-yl]-3-[4-(trifluoromethoxy)phenyl]propan-1-one] | 30 nM
4 | CO[C@]12CN(C(=O)CCc3ccc(OC(F)(F)F)cc3)C[C@@H]1CN(C(=O)N1CCc3c(O)noc3C1)C2 (relative stereo) [Example 2.02, trans-1-[5-(3-hydroxy-5,7-dihydro-4H-[1,2]oxazolo[5,4-c]pyridine-6-carbonyl)-3a-methoxy-3,4,6,6a-tetrahydro-1H-pyrrolo[3,4-c]pyrrol-2-yl]-3-[4-(trifluoromethoxy)phenyl]propan-1-one] | 120 nM
5 | CO[C@]12CN(C(=O)c3cc(OCC4CCOCC4)nc(C4CC4)c3)C[C@@H]1CN(C(=O)N1CCc3c(O)noc3C1)C2 (relative stereo) [Example 2.03, trans-[5-(3-hydroxy-5,7-dihydro-4H-[1,2]oxazolo[5,4-c]pyridine-6-carbonyl)-3a-methoxy-3,4,6,6a-tetrahydro-1H-pyrrolo[3,4-c]pyrrol-2-yl]-[2-cyclopropyl-6-(oxan-4-ylmethoxy)pyridin-4-yl]methanone] | 18 nM
6 | CO[C@@]12CN(C(=O)c3cc(OCC4CCOCC4)nc(C4CC4)c3)C[C@H]1CN(C(=O)N1CCc3c(O)noc3C1)C2 (single isomer, unassigned) [Example 3.01, trans-[5-(3-hydroxy-5,7-dihydro-4H-[1,2]oxazolo[5,4-c]pyridine-6-carbonyl)-3a-methoxy-3,4,6,6a-tetrahydro-1H-pyrrolo[3,4-c]pyrrol-2-yl]-[2-cyclopropyl-6-(oxan-4-ylmethoxy)pyridin-4-yl]methanone] | 20 nM
7 | CO[C@@]12CN(C(=O)c3cc(OCC4CCOCC4)nc(C4CC4)c3)C[C@H]1CN(C(=O)N1CCc3c(O)noc3C1)C2 (single isomer, unassigned) [Example 4.01, trans-[5-(3-hydroxy-5,7-dihydro-4H-[1,2]oxazolo[5,4-c]pyridine-6-carbonyl)-3a-methoxy-3,4,6,6a-tetrahydro-1H-pyrrolo[3,4-c]pyrrol-2-yl]-[2-cyclopropyl-6-(oxan-4-ylmethoxy)pyridin-4-yl]methanone] | 8 nM

Now from value to compound:

Row | IC50 | SMILES
8 | 5 nM | O=C(OCc1ccc(OC(F)(F)F)cc1)N1C[C@@H]2CN(C(=O)c3ccc4[nH]nnc4c3)C[C@@]2(F)C1 (relative stereo) [Example 1.00, trans-5-(1H-Benzotriazole-5-carbonyl)-3a-fluoro-hexahydro-pyrrolo[3,4-c]pyrrole-2-carboxylic acid 4-trifluoromethoxy-benzyl ester]
9 | 12 nM | CO[C@]12CN(C(=O)OCc3ccc(OC(F)(F)F)cc3)C[C@@H]1CN(C(=O)c1ccc3[nH]nnc3c1)C2 (relative stereo) [Example 1.01, trans-5-(1H-benzotriazole-5-carbonyl)-3a-methoxy-hexahydro-pyrrolo[3,4-c]pyrrole-2-carboxylic acid 4-trifluoromethoxy-benzyl ester]
10 | 10 nM | CO[C@]12CN(C(=O)CCc3ccc(OC(F)(F)F)cc3)C[C@@H]1CN(C(=O)c1ccc3[nH]nnc3c1)C2 (relative stereo) [Example 1.02, trans-1-[5-(1H-benzotriazole-5-carbonyl)-3a-methoxy-3,4,6,6a-tetrahydro-1H-pyrrolo[3,4-c]pyrrol-2-yl]-3-[4-(trifluoromethoxy)phenyl]propan-1-one]
11 | 13 nM | C[C@]12CN(C(=O)OCc3ccc(OC(F)(F)F)cc3)C[C@@H]1CN(C(=O)c1ccc3[nH]nnc3c1)C2 (relative stereo) [Example 1.04, trans-5-(1H-benzotriazole-5-carbonyl)-3a-methyl-hexahydro-pyrrolo[3,4-c]pyrrole-2-carboxylic acid 4-trifluoromethoxy-benzyl ester]
12 | 18 nM | CO[C@]12CN(C(=O)CCc3ccc(OC(F)(F)F)cc3)C[C@@H]1CN(C(=O)c1ccc3[nH]c(=O)n(C)c3c1)C2 (relative stereo) [Example 1.05, trans-5-[3a-methoxy-2-[3-[4-(trifluoromethoxy)phenyl]propanoyl]-3,4,6,6a-tetrahydro-1H-pyrrolo[3,4-c]pyrrole-5-carbonyl]-3-methyl-1H-benzimidazol-2-one]
13 | 12 nM | C[C@@]12CN(C(=O)OCc3ccc(OC(F)(F)F)cc3)C[C@H]1CN(C(=O)c1ccc3[nH]nnc3c1)C2 (single isomer, unassigned) [Example 3.02, (+)-trans-5-(1H-benzotriazole-5-carbonyl)-3a-methyl-hexahydro-pyrrolo[3,4-c]pyrrole-2-carboxylic acid 4-trifluoromethoxy-benzyl ester]
14 | 19 nM | CO[C@@]12CN(C(=O)OCc3ccc(OC(F)(F)F)cc3)C[C@H]1CN(C(=O)c1ccc3[nH]nnc3c1)C2 (single isomer, unassigned) [Example 3.03, (−)-trans-5-(1H-benzotriazole-5-carbonyl)-3a-methoxy-hexahydro-pyrrolo[3,4-c]pyrrole-2-carboxylic acid 4-trifluoromethoxy-benzyl ester]
15 | 6 nM | C[C@@]12CN(C(=O)OCc3ccc(OC(F)(F)F)cc3)C[C@H]1CN(C(=O)c1ccc3[nH]nnc3c1)C2 (single isomer, unassigned) [Example 4.02, (−)-trans-5-(1H-benzotriazole-5-carbonyl)-3a-methyl-hexahydro-pyrrolo[3,4-c]pyrrole-2-carboxylic acid 4-trifluoromethoxy-benzyl ester]
16 | 7 nM | CO[C@@]12CN(C(=O)OCc3ccc(OC(F)(F)F)cc3)C[C@H]1CN(C(=O)c1ccc3[nH]nnc3c1)C2 (single isomer, unassigned) [Example 4.03, (+)-trans-5-(1H-benzotriazole-5-carbonyl)-3a-methoxy-hexahydro-pyrrolo[3,4-c]pyrrole-2-carboxylic acid 4-trifluoromethoxy-benzyl ester]

same assay, conditions: ATX IC50, 30 nM ATX, 1 μM MR121 substrate, 30° C., pH 8.0

Row | SMILES | IC50
17 | CO[C@]12CN(C(=O)c3cc(OCC4CCOCC4)nc(C4CC4)c3)C[C@@H]1CN(C(=O)N1CCc3[nH]nnc3C1)C2 (racemic) [Example 2.00, trans-[3a-Methoxy-5-(1,4,6,7-tetrahydrotriazolo[4,5-c]pyridine-5-carbonyl)-3,4,6,6a-tetrahydro-1H-pyrrolo[3,4-c]pyrrol-2-yl]-[2-cyclopropyl-6-(oxan-4-ylmethoxy)pyridin-4-yl]methanone] | 12 nM
18 | CO[C@]12CN(C(=O)c3cc(OCC4CCOCC4)nc(C4CC4)c3)C[C@@H]1CN(C(=O)N1CCc3[nH]nnc3C1)C2 (single isomer, unassigned) [Example 3.00, trans-[3a-methoxy-5-(1,4,6,7-tetrahydrotriazolo[4,5-c]pyridine-5-carbonyl)-3,4,6,6a-tetrahydro-1H-pyrrolo[3,4-c]pyrrol-2-yl]-[2-cyclopropyl-6-(oxan-4-ylmethoxy)pyridin-4-yl]methanone] | 6 nM
19 | CO[C@]12CN(C(=O)c3cc(OCC4CCOCC4)nc(C4CC4)c3)C[C@@H]1CN(C(=O)N1CCc3[nH]nnc3C1)C2 (single isomer, unassigned) [Example 4.00, trans-[3a-methoxy-5-(1,4,6,7-tetrahydrotriazolo[4,5-c]pyridine-5-carbonyl)-3,4,6,6a-tetrahydro-1H-pyrrolo[3,4-c]pyrrol-2-yl]-[2-cyclopropyl-6-(oxan-4-ylmethoxy)pyridin-4-yl]methanone] | 10 nM
